Test results reported in US20180265515A1 (Genentech, Inc., priority 2015, published 2018).

How the values were obtained:
[1] = target: T1, isolated recombinant JAK2 kinase domain (Homo sapiens, UniProt O60674); assay: JAK2 enzyme assay (Caliper LabChip, Ki); format: biochemical; conditions: 25 μM ATP
T1 construct: The activity of the isolated recombinant JAK1 and JAK2 kinase domain was measured
How it was run: (§1)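 Recombinant JAK1 or JAK2 kinase domain phosphorylating a 5-carboxyfluorescein-labelled JAK3-derived peptide, 30 min at 22° C, stopped with EDTA. Phosphorylated fraction of substrate quantified by Caliper LabChip microfluidic separation. Ki from Morrison tight-binding model corrected for ATP competition (Ki=Ki,app/(1+[ATP]/Km,app)).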

[2] = tested on: JAK1-dependent STAT6 phosphorylation downstream of IL-13 stimulation in BEAS-2B human bronchial epithelial cells; assay: JAK1 pathway assay in BEAS-2B cells (IL-13 stimulated STAT6 phosphorylation, MSD); format: cell-based; conditions: read-out: P-STAT6 BEAS2B + IL13 IC50
How it was run: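 BEAS-2B human bronchial epithelial cells, plated the day before in complete growth medium, were preincubated with compound for 1 hr at 37° C (0.2% DMSO final), then stimulated with IL-13 at its EC90 for 15 min. STAT6 phosphorylation in lysates was read by MSD; EC50 was taken as 50% inhibition versus DMSO control.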

[3] = target: T2, isolated recombinant JAK1 kinase domain (Homo sapiens, UniProt P23458); assay: JAK1 enzyme assay (Caliper LabChip, Ki); format: biochemical; conditions: recombinant JAK1 kinase domain, 25 μM ATP
T2 construct: The activity of the isolated recombinant JAK1 and JAK2 kinase domain was measured
How it was run: as §1

T1 sequence (O60674 849-1124 limits assumed): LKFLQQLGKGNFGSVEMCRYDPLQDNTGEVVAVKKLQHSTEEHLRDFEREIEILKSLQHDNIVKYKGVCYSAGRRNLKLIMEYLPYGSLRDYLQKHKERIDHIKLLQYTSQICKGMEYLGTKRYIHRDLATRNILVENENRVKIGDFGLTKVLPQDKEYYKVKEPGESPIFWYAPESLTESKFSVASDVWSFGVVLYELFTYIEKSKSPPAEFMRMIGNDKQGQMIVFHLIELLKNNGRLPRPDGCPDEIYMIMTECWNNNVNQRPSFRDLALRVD
T2 sequence (P23458 875-1153 limits assumed): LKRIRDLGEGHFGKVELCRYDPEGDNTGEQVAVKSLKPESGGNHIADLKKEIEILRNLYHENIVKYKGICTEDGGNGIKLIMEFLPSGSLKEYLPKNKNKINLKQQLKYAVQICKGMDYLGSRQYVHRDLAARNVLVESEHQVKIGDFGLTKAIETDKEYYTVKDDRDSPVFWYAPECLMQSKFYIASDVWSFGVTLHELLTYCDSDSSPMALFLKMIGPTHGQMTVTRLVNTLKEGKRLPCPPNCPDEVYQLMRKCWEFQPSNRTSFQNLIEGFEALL

Structure (SMILES)	Ki [1] [nM]	IC50 [2] [nM]	Ki [3] [nM]
CC(F)(F)CNC1CCN(C(=O)Cn2cc(NC(=O)c3cnn4cccnc34)c(-c3cc(SC4CC4)ccc3OC(F)F)n2)CC1 [Example 169, N-[3-[5-cyclopropylsulfanyl-2-(difluoromethoxy)phenyl]-1-[2-[4-(2,2-difluoropropylamino)-1-piperidyl]-2-oxo-ethyl]pyrazol-4-yl]pyrazolo[1,5-a]pyrimidine-3-carboxamide]	0.8	20	0.43
CCN1CCN(C(=O)Cn2cc(NC(=O)c3cnn4cccnc34)c(-c3cc(SC)ccc3OC(F)F)n2)CC1 [Example 6, N-[3-[2-(difluoromethoxy)-5-methylsulfanyl-phenyl]-1-[2-(4-ethylpiperazin-1-yl)-2-oxo-ethyl]pyrazol-4-yl]pyrazolo[1,5-a]pyrimidine-3-carboxamide]	0.61	18	0.49
CSc1ccc(OC(F)F)c(-c2nn(CC(=O)N3CCC(N4CCN(C5CCOCC5)CC4)CC3)cc2NC(=O)c2cnn3cccnc23)c1 [Example 70, N-[3-[2-(difluoromethoxy)-5-methylsulfanyl-phenyl]-1-[2-oxo-2-[4-(4-tetrahydropyran-4-ylpiperazin-1-yl)-1-piperidyl]ethyl]pyrazol-4-yl]pyrazolo[1,5-a]pyrimidine-3-carboxamide]	0.82	38	0.42
CC(C)Sc1ccc(OC(F)F)c(-c2nn(C)cc2NC(=O)c2cnn3cccnc23)c1 [Example 144, N-[3-[2-(difluoromethoxy)-5-(propan-2-ylsulfanyl)phenyl]-1-methyl-1H-pyrazol-4-yl]pyrazolo[1,5-a]pyrimidine-3-carboxamide]	0.14	5.6	0.25
CC(C)Sc1ccc(OC(F)F)c(-c2nn(CC(=O)N3CCC(N4CCN(C)C(=O)C4)CC3)cc2NC(=O)c2cnn3cccnc23)c1 [Example 106, N-[3-[2-(difluoromethoxy)-5-isopropylsulfanyl-phenyl]-1-[2-[4-(4-methyl-3-oxo-piperazin-1-yl)-1-piperidyl]-2-oxo-ethyl]pyrazol-4-yl]pyrazolo[1,5-a]pyrimidine-3-carboxamide]	0.79	110	0.4
CSc1ccc(OC(F)F)c(-c2nn(CC(=O)N3CCC(N4CCN(CC(=O)N5CCOCC5)CC4)CC3)cc2NC(=O)c2cnn3cccnc23)c1 [Example 88, N-[3-[2-(difluoromethoxy)-5-methylsulfanyl-phenyl]-1-[2-[4-[4-(2-morpholino-2-oxo-ethyl)piperazin-1-yl]-1-piperidyl]-2-oxo-ethyl]pyrazol-4-yl]pyrazolo[1,5-a]pyrimidine-3-carboxamide]	0.49	470	0.32
CSc1ccc(OC(F)F)c(-c2nn(CC(=O)N3CCC(N(C)[C@H]4CCOC4)CC3)cc2NC(=O)c2cnn3cccnc23)c1 [Example 49, N-[3-[2-(difluoromethoxy)-5-methylsulfanyl-phenyl]-1-[2-[4-[methyl-[(3S)-tetrahydrofuran-3-yl]amino]-1-piperidyl]-2-oxo-ethyl]pyrazol-4-yl]pyrazolo[1,5-a]pyrimidine-3-carboxamide]	0.62	15	0.28
CSc1ccc(OC(F)F)c(-c2nn(CC(=O)N3CCC(NCC(C)(F)F)CC3)cc2NC(=O)c2cnn3cccnc23)c1 [Example 19, N-[3-[2-(difluoromethoxy)-5-methylsulfanyl-phenyl]-1-[2-[4-(2,2-difluoropropylamino)-1-piperidyl]-2-oxo-ethyl]pyrazol-4-yl]pyrazolo[1,5-a]pyrimidine-3-carboxamide]	0.39	7.4	0.24
CC(=O)N1CCN(CC2CCN(C(=O)Cn3cc(NC(=O)c4cnn5cccnc45)c(-c4cc(SC5CC5)ccc4OC(F)F)n3)CC2)CC1 [Example 172, N-[1-[2-[4-[(4-acetylpiperazin-1-yl)methyl]-1-piperidyl]-2-oxo-ethyl]-3-[5-cyclopropylsulfanyl-2-(difluoromethoxy)phenyl]pyrazol-4-yl]pyrazolo[1,5-a]pyrimidine-3-carboxamide]	0.91	32	0.45
CC(C)Sc1ccc(OC(F)F)c(-c2nn(CC(=O)N3CCC(N4CCSCC4)CC3)cc2NC(=O)c2cnn3cccnc23)c1 [Example 111, N-[3-[2-(difluoromethoxy)-5-isopropylsulfanyl-phenyl]-1-[2-oxo-2-(4-thiomorpholino-1-piperidyl)ethyl]pyrazol-4-yl]pyrazolo[1,5-a]pyrimidine-3-carboxamide]	1	19	0.38
CC(C)Sc1ccc(OC(F)F)c(-c2nn(CC(=O)N3CCC(N(C)CC(=O)N4CCOCC4)CC3)cc2NC(=O)c2cnn3cccnc23)c1 [Example 154, N-[3-[2-(difluoromethoxy)-5-isopropylsulfanyl-phenyl]-1-[2-[4-[methyl-(2-morpholino-2-oxo-ethyl)amino]-1-piperidyl]-2-oxo-ethyl]pyrazol-4-yl]pyrazolo[1,5-a]pyrimidine-3-carboxamide]	1.5	81	0.42
CSc1ccc(OC(F)F)c(-c2nn(CC(=O)N3CCC(N(C)CCCC#N)CC3)cc2NC(=O)c2cnn3cccnc23)c1 [Example 17, N-[1-[2-[4-[3-cyanopropyl(methyl)amino]-1-piperidyl]-2-oxo-ethyl]-3-[2-(difluoromethoxy)-5-methylsulfanyl-phenyl]pyrazol-4-yl]pyrazolo[1,5-a]pyrimidine-3-carboxamide]	0.53	5	0.27
CSc1ccc(OC(F)F)c(-c2nn(C3(CC#N)CNC3)cc2NC(=O)c2cnn3cccnc23)c1 [Example 77, N-(1-(3-(cyanomethyl)azetidin-3-yl)-3-(2-(difluoromethoxy)-5-(methylthio)phenyl)-1H-pyrazol-4-yl)pyrazolo[1,5-a]pyrimidine-3-carboxamide]	0.33	27	0.47
CC(C)Sc1ccc(OC(F)F)c(-c2nn(CC(=O)N3CCC(C)(N4CCOCC4)CC3)cc2NC(=O)c2cnn3cccnc23)c1 [Example 132, N-[3-[2-(difluoromethoxy)-5-isopropylsulfanyl-phenyl]-1-[2-(4-methyl-4-morpholino-1-piperidyl)-2-oxo-ethyl]pyrazol-4-yl]pyrazolo[1,5-a]pyrimidine-3-carboxamide]	1.2	36	0.67
CSc1ccc(OC(F)F)c(-c2nn(C[C@H]3CCCN3C)cc2NC(=O)c2cnn3cccnc23)c1 [Example 37, N-[3-[2-(difluoromethoxy)-5-methylsulfanyl-phenyl]-1-[[(2R)-1-methylpyrrolidin-2-yl]methyl]pyrazol-4-yl]pyrazolo[1,5-a]pyrimidine-3-carboxamide]	0.48	9.9	0.22
CSc1ccc(OC(F)F)c(-c2nn(CC(=O)N3CCC(N4CCC(C#N)C4)CC3)cc2NC(=O)c2cnn3cccnc23)c1 (stereo not drawn) [Example 32, N-[1-[2-[4-(3-cyanopyrrolidin-1-yl)-1-piperidyl]-2-oxo-ethyl]-3-[2-(difluoromethoxy)-5-methylsulfanyl-phenyl]pyrazol-4-yl]pyrazolo[1,5-a]pyrimidine-3-carboxamide]	0.33	11	0.23
